Values joined by “and” are separate entries in the source; they are usually repeats but may differ in a detail not shown here. Identical values can stand only once.
Tests used:
[1] = tested on: Bacillus cereus (MTCC2128); assay: Antibacterial activity, agar well diffusion; assay type: cell-based; details: for zone of inhibition / inhibition in words: 25 μl
Protocol: (§1) The antibacterial activity was determined by using the agar well diffusion method [[50], [51], [52]]. Two bacterial strains were used to evaluate the antibacterial efficacy of the synthesized compounds: one Gram-positive strain, Bacillus cereus (MTCC2128), and one Gram-negative strain, Escherichia coli (MTCC2412). Sterilized Mueller Hinton Broth (MHB) was used to cultivate the bacterial strains, and the mixture was incubated for 18 h at 37 °C. To evaluate the antibacterial activity, the inhibition zone (RIZ) radius encircled each well was determined in millimeters. The experiments were carried out duplicates. The incubation period for the plates was from 72 to 96 h at a temperature of 37 °C. The zone of inhibition was then looked for on the plates.

α-glucosidase = details: Fig. 1; cited from earlier work
[2] = tested on: Escherichia coli (MTCC2412); assay: Antibacterial activity, agar well diffusion; assay type: cell-based
Protocol: as §1

SMILES	zone of inhibition [1]	inhibition in words [1]	other results
COc1cc2onc(CCOCc3cn(-c4ccccc4C)nn3)c2cc1Cl [Compound 9f, 5-Chloro-6-methoxy-3-(2-((1-(o-tolyl)-1H-1,2,3-triazol-4-yl)methoxy)ethyl)benzo[d] isoxazole]	0.5 mm		antibacterial activity in words [1]: showed antibacterial activity
COc1cc2onc(CCOCc3cn(-c4ccc(Br)cc4)nn3)c2cc1Cl [Compound 9n, 3-(2-((1-(4-Bromophenyl)-1H-1,2,3-triazol-4-yl)methoxy)ethyl)-5-chloro-6-methoxy benzo[d]isoxazole]		moderate inhibition	
O=c1oc2ccccc2c(O)c1C(c1ccc(OCc2cn(-c3ccccc3Cl)nn2)cc1)c1c(O)c2ccccc2oc1=O [I]			IC50 (α-glucosidase): 13 µM
COc1cc2onc(CCOCc3cn(-c4ccc(C(F)(F)F)cc4)nn3)c2cc1Cl [Compound 9l, 5-chloro-6-methoxy-3-(2-((1-(4-(trifluoromethyl)phenyl)-1H-1,2,3-triazol-4-yl)methoxy)ethyl)benzo[d]isoxazole]	0.5 mm and 0.4 mm		antibacterial activity in words [1]: showed antibacterial activity
COc1ccc(-n2cc(COCCc3noc4cc(OC)c(Cl)cc34)nn2)cc1 [Compound 9h, 5-Chloro-6-methoxy-3-(2-((1-(4-methoxyphenyl)-1H-1,2,3-triazol-4-yl)methoxy)ethyl) benzo[d]isoxazole]	0.5 mm		antibacterial activity in words [1]: showed antibacterial activity
COc1cc2onc(CCOCc3cn(-c4ccccc4OC)nn3)c2cc1Cl [Compound 9g, 5-Chloro-6-methoxy-3-(2-((1-(2-methoxyphenyl)-1H-1,2,3-triazol-4-yl)methoxy)ethyl) benzo[d]isoxazole]			zone of inhibition ([2]; 75 μl): 0.9 mm; zone of inhibition ([2]; 100 μl): 1.2 mm
COc1cc2onc(CCOCc3cn(-c4ccccc4C(F)(F)F)nn3)c2cc1Cl [Compound 9k, 5-Chloro-6-methoxy-3-(2-((1-(2-(trifluoromethyl)phenyl)-1H-1,2,3-triazol-4-yl)methoxy)ethyl)benzo[d]isoxazole]		moderate inhibition	
COc1cc2onc(CCOCc3cn(-c4ccc(Br)c(C(F)(F)F)c4)nn3)c2cc1Cl [Compound 9o, 3-(2-((1-(4-Bromo-3-(trifluoromethyl)phenyl)-1H-1,2,3-triazol-4-yl)methoxy)ethyl)-5-chloro-6-methoxybenzo[d]isoxazole]		moderate inhibition	
COc1cc2onc(CCOCc3cn(-c4cccc(Cl)c4)nn3)c2cc1Cl [Compound 9c, 5-Chloro-3-(2-((1-(3-chlorophenyl)-1H-1,2,3-triazol-4-yl)methoxy)ethyl)-6-methoxybenzo[d]isoxazole]	0.4 mm		
COc1cc2onc(CCOCc3cn(-c4ccc(Br)c(F)c4)nn3)c2cc1Cl [Compound 9i, 3-(2-((1-(4-Bromo-3-fluorophenyl)-1H-1,2,3-triazol-4-yl)methoxy)ethyl)-5-chloro-6-methoxybenzo[d]isoxazole]		moderate inhibition	
O=C1Nc2ccccc2/C1=N/N=C/c1ccc(OCc2cn(Cc3ccccc3F)nn2)cc1 [III]			IC50 (α-glucosidase): 16.4 µM
COc1cc2onc(CCOCc3cn(-c4ccc(C)c(C)c4)nn3)c2cc1Cl [Compound 9m, 5-Chloro-3-(2-((1-(3,4-dimethylphenyl)-1H-1,2,3-triazol-4-yl)methoxy)ethyl)-6-methoxy benzo[d]isoxazole]		moderate inhibition	
COc1cc2onc(CCOCc3cn(-c4ccc(F)cc4)nn3)c2cc1Cl [Compound 9j, 5-Chloro-3-(2-((1-(4-fluorophenyl)-1H-1,2,3-triazol-4-yl)methoxy)ethyl)-6-methoxy benzo[d]isoxazole]		moderate inhibition	

Reference: article PMC12179616, “Novel and efficient synthesis of 5-chloro-6-methoxy-3-(2-((1-(aryl)-1H-1,2,3-triazol-4-yl)methoxy)ethyl)benzo[d]isoxazole derivatives as new α-glucosidase inhibitors” (Biochemistry and Biophysics Reports, 2025)
